# Reference: ChEMBL document CHEMBL1687773 (Antimicrob Agents Chemother, 2010)
# Experiments:
# [1] = tested on: Human immunodeficiency virus 1; test: Antiviral activity against HIV1 NL4-3 infected in human MT2 cells assessed as inhibition of virus-induced cell death at 0.5 multiplicities of infection after 6 days; format: functional, organism-based; details: Human immunodeficiency virus 1, NL4-3, MT2, 144 h
# [2] = tested on: Human immunodeficiency virus 1; test: Antiviral activity against HIV1 NL4-3 harboring reverse transcriptase V108I, E138K mutant infected in human SupT1 cells derived from 9 viral passages with lersivirine assessed as inhibition of viral replication after 21 days relative to drug sensitive HIV1 NL4-3; format: functional, SUP-T1
# [3] = tested on: Human immunodeficiency virus 1; test: Antiviral activity against HIV1 NL4-3 infected in human SupT1 cells derived from 11 viral passages assessed as inhibition of viral replication after 21 days relative to drug sensitive HIV1 NL4-3; format: functional, SUP-T1
# [4] = tested on: Human immunodeficiency virus 1; test: Antiviral activity against HIV1 NL4-3 harboring reverse transcriptase V108I, E138K, F227F/L mutant infected in human SupT1 cells derived from 11 viral passages with lersivirine assessed as inhibition of viral replication after 21 days relative to drug sensitive HIV1 NL4-3; format: functional, SUP-T1
# [5] = tested on: Human immunodeficiency virus 1; test: Antiviral activity against HIV1 NL4-3 harboring reverse transcriptase V108I, H221Y, F227F/L, M230M/I mutant infected in human SupT1 cells derived from 11 viral passages with lersivirine assessed as inhibition of viral replication after 21 days relative to drug sensitive HIV1 NL4-3; format: functional, SUP-T1
# [6] = tested on: Human immunodeficiency virus 1; test: Antiviral activity against HIV1 NL4-3 harboring reverse transcriptase L100I, K103Q, H221H/Y mutant infected in human SupT1 cells derived from 11 viral passages with efavirenz assessed as inhibition of viral replication after 21 days relative to drug sensitive HIV1 NL4-3; format: functional, SUP-T1
Compound,EC50 [1],fold change (FC) [2],fold change (FC) [3],fold change (FC) [4],fold change (FC) [5],fold change (FC) [6]
CC(C)(C)NC(=O)[C@@H]1CN(Cc2cccnc2)CCN1C[C@@H](O)C[C@@H](Cc1ccccc1)C(=O)N[C@H]1c2ccccc2C[C@H]1O,0.5 nM,,,,,
C=C(C)[C@@H]1CC[C@]2(C(=O)O)CC[C@]3(C)[C@H](CC[C@@H]4[C@@]5(C)CC[C@H](OC(=O)CC(C)(C)C(=O)O)C(C)(C)[C@@H]5CC[C@]43C)[C@@H]12 [BEVIRIMAT],0.5 nM,,,,,
CC(C)Nc1cccnc1N1CCN(C(=O)c2cc3cc(NS(C)(=O)=O)ccc3[nH]2)CC1 [DELAVIRDINE],,1.5,0.3,1.8,0.2,16.4
Cc1cc(C#N)cc(C)c1Oc1nc(Nc2ccc(C#N)cc2)nc(N)c1Br [ETRAVIRINE],0.5 nM,,,,,
Cc1ccnc2c1NC(=O)c1cccnc1N2C1CC1 [NEVIRAPINE],,0.9,0.2,12.2,6.4,1
Cc1cn([C@H]2C[C@H](N=[N+]=[N-])[C@@H](CO)O2)c(=O)[nH]c1=O [ZIDOVUDINE],,0.4,0.2,0.6,0.1,0.1
